Source: patent US9670223B2, “Compounds with super-aspirin effects” (SOLVOTRIN THERAPEUTICS LTD., priority 2011, dated 2017)
Like-named read-outs stand apart in the source and are kept apart here.

How the values were obtained:
[1] = tested on: P-selectin; assay: Flow cytometry of platelet P-selectin during TCIPA induced by 59M cells; assay type: cell-based, human; conditions: 300 μM
[2] = tested on: platelet rich plasma (PRP); conditions: values marked † From Reference 7, read-out: IC50 (PRP, 95% CI); cited from earlier work
[3] = tested on: HT1080 cells; assay: Tumour cell-induced platelet aggregation (TCIPA), static conditions, HT1080; assay type: cell-based, human; conditions: static, WP, 300 and 500 μM, HT1080 2×10^5/ml
Procedure: (§1) Three human tumor cell lines, 59M ovarian adenocarcinoma, Caco-2 colon adenocarcinoma and HT1080 fibrocarcinoma cells, were obtained from the European Cell Culture Collection. Cell lines were cultured as monolayers in 75 ml culture flasks at 37° C. in a humidified atmosphere with 5% CO2. 59M cells and HT1080 were cultured in Dulbecco's […] (DMEM) supplemented with 10% fetal bovine serum (FBS) and gentamycin (0.05 mg/ml), penicillin (0.06 mg/ml), and streptomycin (0.01 mg/ml). Caco-2 cell line was cultured in Minimum Essential Medium (MEM) supplemented with 20% FBS and the same antibiotics as above. The cells were supplied with fresh medium and subcultured three times each week.
(§2) Washed platelet suspensions (2.5×10^11 platelets 1^−1) were prepared from blood an mixed with the anticoagulant sodium citrate (0.315% final concentration).
The interactions between platelets and tumor cells were measured by light aggregometry (Alonso-Escolano et al., 2004; Jurasz et al., 2001b; Radomski et al., 1991). Briefly, washed platelet samples (2.5×10^8/ml) were placed in an eight channel PAP 8 aggregometer (BIO/DATA CORPORATION, Horsham, Pa., U.S.A.) and incubated for 10 min at 37° C., with stirring at 900 r.p.m., prior to the addition of aggregating agents. […] TCIPA was initiated by the addition of cancer cells, and monitored by Aggro-Link software for at least 30 min. For experiments using inhibitors, aggregation was initiated after 10 min preincubation with these compounds.
To study the ability of the aspirin pro-drugs to inhibit TCIPA in WP cancer cell lines such as HT1080 cells (2×10^5/ml), CaCo2 cells (1.5×10^3/ml) or 59M cells (1×10^3/ml) were used in the presence or absence of aspirin nicotinate (ST0702), ISAS, orthonitrate and metanitrate at 300 and 500 μM. Platelet aggregation was initiated in washed platelets (WP) using HT1080 cells (2×10^5/ml), CaCo2 cells (1.5×10^3/ml) or 59M cells (1×10^3/ml). In addition, regular aspirin (300 and 500 uM) was used as control. Results were expressed in percent changes in maximal light transmission, with 100% representing light transmission of platelet medium alone. ST0702 is hydrolyzed by plasma esterases along two pathways liberating both aspirin and 5-nicotinate salicylate (ST0702 salicylate)(metabolite). The latter is further processed to isosorbide-5-nicotinate and eventually to nicotinic acid. The orthonitrate and metanitrate compounds liberate aspirin and nitric oxide (NO). ISAS meanwhile is hydrolysed to aspirin and salicylic acid. Aspirin (300 and 500 μM) was used in control experiments. Results were expressed in percent changes in maximal light transmission, with 100% representing light transmission of platelet medium alone. Further experiments were performed with ST0702 salicylate (500 μM).

[4] = tested on: washed platelet samples; assay: Arachidonic acid-induced platelet aggregation; assay type: cell-based, human; conditions: n=4
[5] = GI tolerability testing: gastric ulcerogenic effect in rats; assay type: in vivo; conditions: rat, aspirin 30 mg/Kg daily or molar equivalent doses, oral gavage, 3 days
Procedure: In this study, rats are fed Aspirin 30 mg/Kg daily or molar equivalent doses of ISAS, ISANA (“Nicotinate”), ISANO “Meta” nitrate or ISAMNA in oral gavage daily for 3 days (n=3 per group). At the end of the dosing period, all animals were sacrificed, stomachs removed and were immersed in 2% formalin for at least 10 min to fix the gastric tissue wall, and will opened along the greater curvature for scoring for irritation or hemorrhagic lesions or ulcers developed in the corpus mucosa under a dissecting microscope on a 5-point scale. The percentage of stomach surface area showing ulcers was recorded for each animal and expressed as a percentage.

[6] = tested on: platelet rich plasma (PRP); assay: Collagen-induced platelet aggregation in platelet rich plasma (light aggregometry); assay type: cell-based; conditions: Homo sapiens, collagen (5 µg/mL), values without †, read-out: IC50 (PRP, 95% CI)
[7] = tested on: platelet rich plasma (PRP); assay: U46619-induced platelet aggregation in PRP; assay type: cell-based, human
Procedure: Platelet aggregation was measured by light aggregometry. […] Aggregation was initiated by the addition of agonists, and monitored by Aggro-Link software for at least 6 min.

[8] = tested on: washed platelet samples; assay: Collagen-induced platelet aggregation in the TCIPA studies (washed platelets); assay type: cell-based, human; conditions: Homo sapiens, Platelet; aspirin 300 μM, n=4
[9] = tested on: MMP-2; assay: MMP-2 release during 59M-induced TCIPA by zymography; assay type: cell-based, human; conditions: 300 uM, P>0.05
Procedure: Sample collection was carried out as previously described (Jurasz et al., 2001; Medina et al., 2006). Briefly, platelets at a concentration of 2.5×10^8/ml were placed into lumi-aggregometer and tumor cells (59M) were added at 1×10^3/ml. When platelet aggregation reached 50% maximal light transmission the reaction was terminated and samples were collected. The samples were then centrifuged at 900×g at room temperature for 10 min. After centrifugation, platelet releasates were collected and stored at −80 C until assayed for the presence of MMP activity by zymography.
Gelatin zymography was used to detect the activity of MMP-2 in the releasates as previously described (Alonso-Escolano et al., 2004; Jurasz et al., 2001; Medina et al., 2006). Briefly, samples were subjected to 10% sodium dodecyl sulfate-polyacrylamide gel electrophoresis (SDS-PAGE) with copolymerized gelatin (0.2%; Sigma Chemical Co, St. Louis, Mo.) incorporated as a substrate for gelatinolytic proteases. […] The gelatinolytic activities were detected as transparent bands against the background of Coomassie blue-stained gelatin. The intensities of the separate bands were analyzed and quantified using ChemiDoc XRS System (Bio-Rad, Hercules, Calif., U.S.A.). The gelatinolytic activity of each band was expressed as arbitrary units of density/mg protein.

[10] = tested on: CaCo2 cells; assay: Tumour cell-induced platelet aggregation (TCIPA), static conditions, Caco-2
Procedure: as §1, §2
The interactions between platelets and tumor cells were measured by light aggregometry (Alonso-Escolano et al., 2004; Jurasz et al., 2001b; Radomski et al., 1991). […] TCIPA was initiated by the addition of cancer cells, and monitored by Aggro-Link software for at least 30 min. […]
To study whether or not aspirin prodrugs had any direct effect on tumour cells, nictoinate was preincubated with different cell lines and added to the platelet suspension. TCIPA was monitored for at least 30 min.

Row | Compound | 59M-mediated increase in platelet surface P-selectin [1] | IC50 [2] [µM] | inhibition of TCIPA induced by HT1080 [3] | inhibition of TCIPA induced by HT1080 ([3]; listed as aspirin) | effect on arachidonic acid (100 μM)-induced aggregation [4] | gastric ulcerogenic effect [5] | IC50 [6] [µM] | inhibitory effect on platelet aggregation induced by U46619 [7] | inhibition at 300 µM [8] [%] | release of pro-MMP-2 during platelet aggregation induced by 59M cells [9] | effect on TCIPA when tumour cells were preincubated with compound ([10]; Caco2 cells preincubated) | inhibition of TCIPA induced by Caco-2 ([10]; static, WP, 300 and 500 μM, CaCo2 1.5×10^3/ml)
1 | CC(=O)Oc1ccccc1C(=O)O [Aspirin] | failed to prevent | 92 | did not exert any significant effect | did not exert a significant effect | abolished | significant gastric ulcerogenic effect | 90 | Neither aspirin nor the aspirin prodrugs had any inhibitory effect | 56 ± 7 | failed to prevent |  | 
2 | CC(=O)Oc1ccccc1C(=O)O[C@H]1CO[C@H]2[C@@H]1OC[C@H]2OC(=O)c1cccnc1 [ST0702, isosorbide-2-aspirinate-5-nicotinate] | significantly (P<0.01, n=4) inhibited |  | consistently inhibited TCIPA |  |  |  |  |  |  |  | no effect on TCIPA | consistently inhibited TCIPA
